Results from paper PMC7144022, “Quinolinecarboxamides Inhibit the Replication of the Bovine Viral Diarrhea Virus by Targeting a Hot Spot for the Inhibition of Pestivirus Replication in the RNA-Dependent RNA Polymerase” (Molecules, 2020).

Legend:
[1] = Cytotoxicity assay, proliferation of exponentially growing MDBK cells (MTS/PMS); assay type: cell-based, bovine; conditions: bovine
Procedure: Assays were carried out, as described previously.

BVDV NADL virus = test: CPE-based antiviral assay, BVDV NADL in MDBK cells (MTS/PMS); conditions: for EC50: Bovine viral diarrhea virus isolates and strains, MDBK, 72 h; for S.I.: selectivity index, CC50 vs EC50; for fold increase: sheet CSFCII#, potency relative to TO502-2403 (EC50 0.2 µM)

| SMILES | CC50 at 5 days [1] | EC50 (BVDV NADL virus) | S.I. (BVDV NADL virus) | fold increase (BVDV NADL virus) |
| --- | --- | --- | --- | --- |
| Cc1cccc2sc(NC(=O)c3cc(-c4ccco4)nc4c(F)cccc34)nc12 [CSFC-80, Fc5cccc1c5nc(cc1C(=O)Nc2nc3c(C)cccc3s2)c4ccco4] | > 100 µM | 900 nM | 111 | 0.22 |
| COc1ccc2nc(NC(=O)c3cc(-c4ccco4)nc4ccc(Cl)cc34)sc2c1 [CSFC-81, Clc1cc2c(cc1)nc(cc2C(=O)Nc3nc4ccc(cc4s3)OC)c5ccco5] | > 100 µM | 24500 nM | 4 | 0.00816 |
| COc1ccc2nc(NC(=O)c3cc(-c4ccsc4)nc4ccccc34)sc2c1 [CSFC-82, O=C(c2cc(nc1ccccc12)c3ccsc3)Nc4nc5ccc(cc5s4)OC] | > 100 µM | 200 nM | 500 | 1.00 |
| COc1ccc2nc(NC(=O)c3cc(-c4ccco4)nc4c(F)cccc34)sc2c1 [CSFC-83, Fc5cccc1c5nc(cc1C(=O)Nc2nc3ccc(cc3s2)OC)c4ccco4] | > 100 µM | 70 nM | 1429 | 2.86 |
| Cc1cccc2sc(NC(=O)c3cc(-c4ccco4)nc4ccc(Cl)cc34)nc12 [CSFC-84, Clc1cc2c(cc1)nc(cc2C(=O)Nc3nc4c(C)cccc4s3)c5ccco5] | > 100 µM | 11500 nM | 9 | 0.0174 |
| Cc1cccc2sc(NC(=O)c3cc(-c4cc(Cl)sc4Cl)nc4ccccc34)nc12 [CSFC-85, Clc1cc(c(Cl)s1)c3nc2ccccc2c(c3)C(=O)Nc4nc5c(C)cccc5s4] | > 100 µM | 300 nM | 333 | 0.67 |
| COc1ccc2nc(NC(=O)c3cc(-c4cc(C)oc4C)nc4ccccc34)sc2c1 [CSFC-86, O=C(c2cc(nc1ccccc12)c3cc(oc3C)C)Nc4nc5ccc(cc5s4)OC] | > 100 µM | 300 nM | 333 | 0.67 |
| Cc1cccc2sc(NC(=O)c3cc(-c4cccn4C)nc4ccccc34)nc12 [CSFC-88, Cn1cccc1c3nc2ccccc2c(c3)C(=O)Nc4nc5c(C)cccc5s4] | > 100 µM | 200 nM | 500 | 1.00 |
| COc1cccc2sc(NC(=O)c3cc(-c4cccs4)nc4ccccc34)nc12 [CSFC-89, COc1cccc2sc(nc12)NC(=O)c4cc(nc3ccccc34)c5cccs5] | > 100 µM | 600 nM | 167 | 0.33 |
| Cc1cccc2sc(NC(=O)c3cc(-c4cc5ccccc5o4)nc4ccccc34)nc12 [CSFC-90, Cc1cccc2sc(nc12)NC(=O)c4cc(nc3ccccc34)c5cc6ccccc6o5] | > 100 µM | 3000 nM | 33 | 0.07 |
| COc1ccc(-n2ccc(NC(=O)c3cc(-c4ccc(F)cc4)nc4ccccc34)n2)cc1 [CSFC-91, Fc1ccc(cc1)c3nc2ccccc2c(c3)C(=O)Nc4ccn(n4)c5ccc(OC)cc5] | > 100 µM | 1000 nM | 100 | 0.20 |
| O=C(Nc1ccn(-c2ccccc2)n1)c1cc(-c2cc3ccccc3o2)nc2ccccc12 [CSFC-92, O=C(Nc1ccn(n1)c2ccccc2)c3cc(nc4ccccc34)c5cc6ccccc6o5] | > 100 µM | 300 nM | 333 | 0.67 |
| O=C(Nc1ccn(-c2ccccc2)n1)c1cc(-c2cccs2)nc2ccc(F)cc12 [CSFC-93, O=C(Nc1ccn(n1)c2ccccc2)c4cc(nc3ccc(F)cc34)c5cccs5] | > 100 µM | 60 nM | 1667 | 3.33 |
| O=C(Nc1nc2ccc(C(F)(F)F)cc2s1)c1cc(-c2ccccc2)nc2ccccc12 [CSFC-94, FC(F)(F)c1ccc2nc(sc2c1)NC(=O)c4cc(nc3ccccc34)c5ccccc5] | > 100 µM | 100000 nM | 1 | 0.002 |
| Cc1cccc2sc(NC(=O)c3cc(-c4cccs4)nc4ccc(Br)cc34)nc12 [CSFC-95, Brc1cc2c(cc1)nc(cc2C(=O)Nc3nc4c(C)cccc4s3)c5cccs5] | > 100 µM | 3100 nM | 32 | 0.0645 |
| O=C(Nc1ccn(-c2ccccc2)n1)c1cc(-c2ccccn2)nc2ccccc12 [CSFC-96, O=C(c2cc(nc1ccccc12)c3ccccn3)Nc4ccn(n4)c5ccccc5] | > 100 µM | 200 nM | 500 | 1.00 |
| O=C(Nc1ccn(-c2ccccc2)n1)c1cc(-c2cccs2)nc2ccc(I)cc12 [CSFC-97, O=C(Nc1ccn(n1)c2ccccc2)c4cc(nc3ccc(I)cc34)c5cccs5] | > 100 µM | 4100 nM | 24 | 0.05 |
| Cc1cccc2sc(NC(=O)c3cc(-c4cccs4)nc4c(Cl)cccc34)nc12 [CSFC-98, Clc5cccc1c5nc(cc1C(=O)Nc2nc3c(C)cccc3s2)c4cccs4] | > 100 µM | 200 nM | 500 | 1.00 |

| SMILES | CC50 at 5 days [1] | EC50 (BVDV NADL virus) | S.I. (BVDV NADL virus) | fold increase (BVDV NADL virus) |
| --- | --- | --- | --- | --- |
| O=C(Nc1ccn(-c2ccccc2)n1)c1cc(-c2cccnc2)nc2ccccc12 [CSFC-99, O=C(Nc1ccn(n1)c1ccccc1)c1cc(nc2ccccc21)c1cccnc1] | 72 µM | 53600 nM | 1 | 0.00373 |
| O=C(Nc1ccn(-c2ccccc2)n1)c1cc(-c2cccs2)nc2c(F)cccc12 [CSFC-100, O=C(Nc1ccn(n1)c2ccccc2)c4cc(nc3c(F)cccc34)c5cccs5] | > 100 µM | 50 nM | 2000 | 4.00 |
| Cc1cccc2sc(NC(=O)c3cc(-c4cccs4)nc4c(F)cccc34)nc12 [CSFC-101, Fc5cccc1c5nc(cc1C(=O)Nc2nc3c(C)cccc3s2)c4cccs4] | 23.2 µM | 300 nM | 77 | 0.67 |
| O=C(Nc1ccn(-c2ccccc2)n1)c1cc(-c2ccccc2F)nc2c(F)cccc12 [CSFC-102, Fc1ccccc1c3nc2c(cccc2F)c(c3)C(=O)Nc4ccn(n4)c5ccccc5] | > 100 µM | 300 nM | 333 | 0.67 |
| Cc1cccc2sc(NC(=O)c3cc(-c4ccccc4F)nc4c(F)cccc34)nc12 [CSFC-103, Fc1ccccc1c3nc2c(cccc2F)c(c3)C(=O)Nc4nc5c(C)cccc5s4] | > 100 µM | 500 nM | 200 | 0.40 |
| O=C(Nc1ccn(-c2ccc(Cl)cc2)n1)c1cc(-c2ccco2)nc2c(F)cccc12 [CSFC-104, Clc1ccc(cc1)n2ccc(n2)NC(=O)c4cc(nc3c(F)cccc34)c5ccco5] | > 100 µM | 200 nM | 500 | 1.00 |
| Cc1c(-c2ccco2)nc2ccccc2c1C(=O)Nc1nc2c(C)cccc2s1 [CSFC-105, Cc2c(nc1ccccc1c2C(=O)Nc3nc4c(C)cccc4s3)c5ccco5] | > 100 µM | 700 nM | 143 | 0.29 |
| O=C(Nc1nnc(-c2ccccc2)s1)c1cc(-c2cccs2)nc2ccc(F)cc12 [CSFC-106, O=C(Nc1nnc(s1)c2ccccc2)c4cc(nc3ccc(F)cc34)c5cccs5] | > 100 µM | 2300 nM | 43 | 0.09 |
| COc1ccc(-c2cc(C(=O)Nc3ccn(-c4ccccc4)n3)c3ccccc3n2)cc1F [CSFC-107, COc1ccc(cc1F)c3nc2ccccc2c(c3)C(=O)Nc4ccn(n4)c5ccccc5] | > 100 µM | 600 nM | 167 | 0.33 |
| O=C(Nc1ccn(-c2ccccc2)n1)c1cc(-c2cnccn2)nc2ccccc12 [CSFC-108, O=C(c2cc(nc1ccccc12)c3cnccn3)Nc4ccn(n4)c5ccccc5] | > 100 µM | 200 nM | 500 | 1.00 |
| O=C(Nc1ccn(-c2ccccc2)n1)c1cc(-c2cccs2)nc2c(Cl)cccc12 [CSFC-109, O=C(Nc1ccn(n1)c2ccccc2)c4cc(nc3c(Cl)cccc34)c5cccs5] | 13 µM | 200 nM | 65 | 1.00 |
| Cc1sc(NC(=O)c2cc(-c3ccccc3)nc3ccccc23)nc1-c1ccccc1 [CSFC-110, O=C(Nc2nc(c1ccccc1)c(C)s2)c4cc(nc3ccccc34)c5ccccc5] | > 100 µM | 300 nM | 333 | 0.67 |
| O=C(Nc1ccn(-c2ccccc2)n1)c1cc(-c2ccccc2Cl)nc2ccccc12 [CSFC-111, Clc1ccccc1c3nc2ccccc2c(c3)C(=O)Nc4ccn(n4)c5ccccc5] | > 100 µM | 400 nM | 250 | 0.50 |
| Cc1ccc(-c2cc(C(=O)Nc3ccn(-c4ccccc4)n3)c3ccccc3n2)cc1 [CSFC-112, Cc1ccc(cc1)c3nc2ccccc2c(c3)C(=O)Nc4ccn(n4)c5ccccc5] | > 100 µM | 100 nM | 1000 | 2.00 |
| Cc1cccc2sc(NC(=O)c3cc(-c4ccccc4Cl)nc4ccccc34)nc12 [CSFC-113, Clc1ccccc1c3nc2ccccc2c(c3)C(=O)Nc4nc5c(C)cccc5s4] | > 100 µM | 400 nM | 250 | 0.50 |
| Cc1ccc(-c2csc(NC(=O)c3cc(-c4ccccc4)nc4ccccc34)n2)cc1 [CSFC-114, O=C(Nc1nc(cs1)c2ccc(C)cc2)c4cc(nc3ccccc34)c5ccccc5] | > 100 µM | 1100 nM | 91 | 0.18 |
| Cc1cccc2sc(NC(=O)c3cc(-c4ccncc4)nc4ccccc34)nc12 [CSFC-115, Cc1cccc2sc(nc12)NC(=O)c4cc(nc3ccccc34)c5ccncc5] | > 100 µM | 200 nM | 500 | 1.00 |
